Structures are written as SMILES.

This note sets out measurements from patent publication US9932340B2, “Substituted indoles” (AbbVie Inc., priority 2014, dated 2018).

SUV420H1 enzyme, sequence (Q4FZB7 whole entry): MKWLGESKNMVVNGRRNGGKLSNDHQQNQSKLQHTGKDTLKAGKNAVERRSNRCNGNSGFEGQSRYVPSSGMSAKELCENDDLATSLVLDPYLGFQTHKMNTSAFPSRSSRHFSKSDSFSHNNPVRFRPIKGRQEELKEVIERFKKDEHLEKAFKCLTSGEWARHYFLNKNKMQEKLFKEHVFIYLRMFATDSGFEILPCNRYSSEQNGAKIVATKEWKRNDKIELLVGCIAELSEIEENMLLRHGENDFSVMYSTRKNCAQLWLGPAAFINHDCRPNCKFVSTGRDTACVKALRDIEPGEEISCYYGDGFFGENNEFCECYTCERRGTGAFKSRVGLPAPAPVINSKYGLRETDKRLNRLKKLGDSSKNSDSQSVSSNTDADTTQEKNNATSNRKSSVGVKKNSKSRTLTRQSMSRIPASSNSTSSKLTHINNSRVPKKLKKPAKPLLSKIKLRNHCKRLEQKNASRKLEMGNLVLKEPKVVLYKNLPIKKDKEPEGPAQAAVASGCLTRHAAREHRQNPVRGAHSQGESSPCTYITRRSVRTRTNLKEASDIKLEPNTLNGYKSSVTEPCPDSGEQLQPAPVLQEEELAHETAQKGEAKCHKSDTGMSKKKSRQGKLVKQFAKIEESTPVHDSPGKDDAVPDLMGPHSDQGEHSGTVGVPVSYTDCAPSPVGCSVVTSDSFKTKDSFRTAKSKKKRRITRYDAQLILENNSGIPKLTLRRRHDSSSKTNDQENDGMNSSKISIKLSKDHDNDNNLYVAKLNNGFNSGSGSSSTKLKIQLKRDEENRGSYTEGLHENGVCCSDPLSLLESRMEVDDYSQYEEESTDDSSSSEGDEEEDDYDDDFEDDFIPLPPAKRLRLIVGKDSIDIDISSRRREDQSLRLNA

The target of this experiment is SUV420H1 enzyme (Homo sapiens, UniProt Q4FZB7). In words: TR-FRET SAH SUV420H1 enzyme inhibition assay. It is filed as biochemical. The note with it: Histone Peptide H4(8-30)me1 and SAM, overnight at room temp, TR-FRET detection of SAH, read-out: TR-FRET SAH_SUV420H1 IC50. The procedure:
Test compounds were dispensed by a Labcyte Echo in 384-well low volume assay plates with 3-fold serial dilutions from 50 μM to 0.00075 μM. 5 μL of SUV420H1 enzyme (Abbvie) at 90 nM was added to all wells except the no enzyme control wells, and incubated for 30 minutes at room temp before 5 μL of Histone Peptide H4(8-30)me1 (Anaspec) at 5 nM and SAM at 4 nM was added to all wells. The plates were incubated in a humidified chamber overnight at room temp and then 10 μL of the detection reagent that contained RIPA buffer (50 mM Tris-HCl, pH 8.0, 150 mM sodium chloride, 1.0% Igepal CA-630 (NP-40), 0.5% sodium deoxycholate and 0.1% sodium dodecyl sulfate) (Sigma) with 2 nM of Terbium chelate anti S-adenosyl-L-homocysteine (SAH) (Abbvie) antibody and Oregon Green labeled SAH at 4 nM was added. The plates were further incubated for 4 hours at room temperature. The plates were read in a Perkin Elmer Envision using a TR-FRET protocol with Excitation set at 335 nm and Emission at 520 and 495 nm. To generate dose response curves the data is normalized to percent inhibition by setting the average of the plus and minus enzyme control wells to 0% and 100% inhibition respectively. The IC50 values for the compounds are generated by fitting the normalized data with Accelrys Assay Explorer 3.3 to a sigmoidal curve model using […] regression, Y=(100*x^n)/(K^n+x^n), where Y is the measured response, x is the compound concentration, n is the Hill Slope and K is the IC50 and the lower and higher asymptotes are constrained to 0 and 100 respectively.
(In general: TR-FRET usually uses a lanthanide donor and a delayed reading to cut background.)
As for `Cc1cnc(C(=O)NCc2cc3cc(Cl)cc(Cn4cnc5c(N)ncnc54)c3[nH]2)cn1` [Example 205, N-({7-[(6-amino-9H-purin-9-yl)methyl]-5-chloro-1H-indol-2-yl}methyl)-5-methylpyrazine-2-carboxamide], the IC50 (in general, the concentration at which inhibition is half-maximal) stood at 3.43 µM.
For `CNCc1cc2cc(Cl)cc(Cn3cnc4c(N)ncnc43)c2[nH]1` [Example 89, 9-({5-chloro-2-[(methylamino)methyl]-1H-indol-7-yl}methyl)-9H-purin-6-amine], the IC50 was 2.6 µM.
In the case of `Nc1ncnc2c1ncn2Cc1cc(Cl)cc2cc(CNC(=O)c3ccccc3OC(F)F)[nH]c12` [Example 261, N-({7-[(6-amino-9H-purin-9-yl)methyl]-5-chloro-1H-indol-2-yl}methyl)-2-(difluoromethoxy)benzamide], the IC50 is 1.99 µM.
The value for `Cc1nnccc1C(=O)NCc1cc2cc(C3=CCN(C(=O)OC(C)(C)C)CC3)cc(Cn3cnc4c(N)ncnc43)c2[nH]1` [Example 204, tert-butyl 4-{7-[(6-amino-9H-purin-9-yl)methyl]-2-({[(3-methylpyridazin-4-yl)carbonyl]amino}methyl)-1H-indol-5-yl}-3,6-dihydropyridine-1(2H)-carboxylate] was 0.0532 µM.
For `CN1CCN(Cc2cccc(-c3cc(Cn4cnc5c(N)ncnc54)c4[nH]c(CN)cc4c3)c2)CC1` [Example 55, 9-{[2-(aminomethyl)-5-{3-[(4-methylpiperazin-1-yl)methyl]phenyl}-1H-indol-7-yl]methyl}-9H-purin-6-amine], the concentration for half-maximal inhibition (IC50) worked out at 0.293 µM.
The value for `Nc1ncnc2c1ncn2Cc1cc(Cl)cc2cc(CNC(=O)c3cnccn3)[nH]c12` [Example 193, N-({7-[(6-amino-9H-purin-9-yl)methyl]-5-chloro-1H-indol-2-yl}methyl)pyrazine-2-carboxamide] was 20 µM.
The value for `NCc1cc2cc(-c3ccc(C(=O)NC4CC4)cc3)cc(Cn3cnc4c(N)ncnc43)c2[nH]1` [Example 50, 4-{2-(aminomethyl)-7-[(6-amino-9H-purin-9-yl)methyl]-1H-indol-5-yl}-N-cyclopropylbenzamide] was 0.223 µM.
The value for `COc1cc(C(=O)NCc2cc3cc(Cl)cc(Cn4cnc5c(N)ncnc54)c3[nH]2)ccc1C` [Example 300, N-({7-[(6-amino-9H-purin-9-yl)methyl]-5-chloro-1H-indol-2-yl}methyl)-3-methoxy-4-methylbenzamide] was 4.15 µM; that for `Nc1ncnc2c1ncn2Cc1cc(Cl)cc2cc(CNC(=O)c3cnc4ccoc4c3)[nH]c12` [Example 340, N-({7-[(6-amino-9H-purin-9-yl)methyl]-5-chloro-1H-indol-2-yl}methyl)furo[3,2-b]pyridine-6-carboxamide] was 0.807 µM; that for `COc1cccc(-c2cc(Cn3cnc4c(N)ncnc43)c3[nH]c(CN)cc3c2)c1` [Example 35, 9-{[2-(aminomethyl)-5-(3-methoxyphenyl)-1H-indol-7-yl]methyl}-9H-purin-6-amine] was 1.09 µM.
`Nc1ncnc2c1ncn2Cc1cc(Cl)cc2cc(CNC(=O)c3ccc4ncsc4c3)[nH]c12` [Example 335, N-({7-[(6-amino-9H-purin-9-yl)methyl]-5-chloro-1H-indol-2-yl}methyl)-1,3-benzothiazole-6-carboxamide]: the IC50 was determined as 0.401 µM.
With `Nc1ncnc2c1ncn2Cc1cc(Cl)cc2cc(CNC(=O)c3ccc4[nH]ncc4c3)[nH]c12` [Example 346, N-({7-[(6-amino-9H-purin-9-yl)methyl]-5-chloro-1H-indol-2-yl}methyl)-1H-indazole-5-carboxamide], the IC50 is 4.66 µM.
The result for `Nc1ncnc2c1ncn2Cc1cc(Cl)cc2cc(CNC(=O)c3ccccc3N3CCCCC3)[nH]c12` [Example 322, N-({7-[(6-amino-9H-purin-9-yl)methyl]-5-chloro-1H-indol-2-yl}methyl)-2-(piperidin-1-yl)benzamide] reads 29.9 µM; that for `Nc1ncnc2c1ncn2Cc1cc(Cl)cc2cc(CNC(=O)Cc3ccccc3Cl)[nH]c12` [Example 253, N-({7-[(6-amino-9H-purin-9-yl)methyl]-5-chloro-1H-indol-2-yl}methyl)-2-(2-chlorophenyl)acetamide], 36.1 µM; that for `Nc1ncnc2c1ncn2Cc1cc(Cl)cc2cc(CNC(=O)c3ccc4nc(O)sc4c3)[nH]c12` [Example 341], 3.03 µM.
As to `N#Cc1ccc(C(=O)NCc2cc3cc(Cl)cc(Cn4cnc5c(N)ncnc54)c3[nH]2)cn1` [Example 240, N-({7-[(6-amino-9H-purin-9-yl)methyl]-5-choro-1H-indol-2-yl}methyl)-6-cyanopyridine-3-carboxamide], the IC50 turned out to be 0.164 µM.
On to `NCc1cc2cc(-c3cccc(C(=O)NC4CC4)c3)cc(Cn3cnc4c(N)ncnc43)c2[nH]1` [Example 51, 3-{2-(aminomethyl)-7-[(6-amino-9H-purin-9-yl)methyl]-1H-indol-5-yl}-N-cyclopropylbenzamide], for which the 50% inhibitory concentration (IC50) was found to be 0.294 µM.
Regarding `NCc1cc2ccc(-c3ccccc3)c(Cn3cnc4c(N)ncnc43)c2[nH]1` [Example 61, 9-{[2-(aminomethyl)-6-phenyl-1H-indol-7-yl]methyl}-9H-purin-6-amine], the IC50 amounted to 20.3 µM.
With `Cc1cc(C#N)ccc1C(=O)NCc1cc2cc(C3=CCOCC3)cc(Cn3cnc4c(N)ncnc43)c2[nH]1` [Example 304, N-({7-[(6-amino-9H-purin-9-yl)methyl]-5-(3,6-dihydro-2H-pyran-4-yl)-1H-indol-2-yl}methyl)-4-cyano-2-methylbenzamide], the half-maximal inhibitory concentration (IC50) stood at 0.0491 µM.
As to `Cc1ncsc1C(=O)NCc1cc2cc(Cl)cc(Cn3cnc4c(N)ncnc43)c2[nH]1` [Example 148, N-({7-[(6-amino-9H-purin-9-yl)methyl]-5-chloro-1H-indol-2-yl}methyl)-4-methyl-1,3-thiazole-5-carboxamide], the IC50 is 1.03 µM.
Take `NCc1cc2c(Cl)ccc(Cn3cnc4c(N)ncnc43)c2[nH]1` [Example 62, 9-{[2-(aminomethyl)-4-chloro-1H-indol-7-yl]methyl}-9H-purin-6-amine]: the IC50 was found to be 1.12 µM.
`CN(C)c1ccc(CC(=O)NCc2cc3cc(Cl)cc(Cn4cnc5c(N)ncnc54)c3[nH]2)cc1` [Example 317, N-({7-[(6-amino-9H-purin-9-yl)methyl]-5-chloro-1H-indol-2-yl}methyl)-2-[4-(dimethylamino)phenyl]acetamide]: the IC50 was found to be 4.5 µM.
The value for `CC(C)c1oncc1C(=O)NCc1cc2cc(Cl)cc(Cn3cnc4c(N)ncnc43)c2[nH]1` [Example 187, N-({7-[(6-amino-9H-purin-9-yl)methyl]-5-chloro-1H-indol-2-yl}methyl)-5-(propan-2-yl)-1,2-oxazole-4-carboxamide] was 1.87 µM.
Consider `Cc1nc(N)c2ncn(Cc3cccc4cc[nH]c34)c2n1` [Example 4, 9-(1H-indol-7-ylmethyl)-2-methyl-9H-purin-6-amine], for which the IC50 came out at 14.1 µM.
`Nc1ncnc2c1ncn2Cc1cc(Cl)cc2cc(CNCc3cccc(Cl)c3F)[nH]c12` [Example 218, 9-[(5-chloro-2-{[(3-chloro-2-fluorobenzyl)amino]methyl}-1H-indol-7-yl)methyl]-9H-purin-6-amine]: the half-maximal inhibitory concentration (IC50) is 2.33 µM.
With `Nc1ncnc2c1ncn2Cc1cc(Cl)cc2cc(CNC(=O)c3ccc4cn[nH]c4c3)[nH]c12` [Example 342, N-({7-[(6-amino-9H-purin-9-yl)methyl]-5-chloro-1H-indol-2-yl}methyl)-1H-indazole-6-carboxamide], the half-maximal inhibitory concentration (IC50) was 0.947 µM.
The value for `Nc1ncnc2c1ncn2Cc1cc(Cl)cc2cc(CNC(=O)C3CCOCC3)[nH]c12` [Example 126, N-({7-[(6-amino-9H-purin-9-yl)methyl]-5-chloro-1H-indol-2-yl}methyl)tetrahydro-2H-pyran-4-carboxamide] was 2.23 µM; that for `Nc1ncnc2c1ncn2Cc1cc(Cl)cc2cc(CNC(=O)c3ccc4[nH]ccc4c3)[nH]c12` [Example 357, N-({7-[(6-amino-9H-purin-9-yl)methyl]-5-chloro-1H-indol-2-yl}methyl)-1H-indole-5-carboxamide] was 12 µM; that for `Nc1ncnc2c1ncn2Cc1cc(Cl)cc2cc(CNC(=O)c3cscn3)[nH]c12` [Example 140, N-({7-[(6-amino-9H-purin-9-yl)methyl]-5-chloro-1H-indol-2-yl}methyl)-1,3-thiazole-4-carboxamide] was 6.09 µM.
The value for `Nc1ncnc2c1ncn2Cc1cc(Cl)cc2cc(CNC(=O)Cc3cccc(F)c3)[nH]c12` [Example 255, N-({7-[(6-amino-9H-purin-9-yl)methyl]-5-chloro-1H-indol-2-yl}methyl)-2-(3-fluorophenyl)acetamide] was 15.5 µM.
`CC1CCCC(C(=O)NCc2cc3cc(Cl)cc(Cn4cnc5c(N)ncnc54)c3[nH]2)C1` (centres unmarked) [Example 131, N-({7-[(6-amino-9H-purin-9-yl)methyl]-5-chloro-1H-indol-2-yl}methyl)-3-methylcyclohexanecarboxamide]: the IC50 turned out to be 3.23 µM.
With `CN1CCN(Cc2ccc(-c3cc(Cn4cnc5c(N)ncnc54)c4[nH]c(CN)cc4c3)cc2)CC1` [Example 54, 9-{[2-(aminomethyl)-5-{4-[(4-methylpiperazin-1-yl)methyl]phenyl}-1H-indol-7-yl]methyl}-9H-purin-6-amine], the IC50 worked out at 1.18 µM.
